Source: article PMC9049830 (RSC Advances, 2020)
“And” between values parts separate entries of the source, which are not always exact repeats. Identical values can stand only once. Marks after values point to notes of the source that are not given here.

Key:
[1] = Thermal stability by TG analysis; type: physicochemical
[2] = n-octanol/water and n-octanol/phosphate buffer partition coefficient; type: physicochemical; conditions: for log PpH=5.4: n-octanol/phosphate buffer pH 5.4, 25 °C; for log PpH=7.4: n-octanol/phosphate buffer pH 7.4, 25 °C
[3] = Skin permeation studies in Franz diffusion cells; type: in vitro ADME, porcine; conditions: after 24 h permeation from ethanolic solution into acceptor phase
[4] = Accumulation in the skin after 24 h permeation; type: in vitro ADME, porcine; conditions: after 24 h skin permeation from ethanolic solution; for Skin accumulation: acceptor fluid pH 7.4, n = 3
[5] = Britton–Robinson buffer at pH 7.4 as acceptor and donor solution; cited from earlier work
[6] = known ibuprofen salts; cited from earlier work
[7] = Solubility in organic solvents by modified Vogel's method; type: physicochemical; conditions: 25 °C
Solubility = type: physicochemical; conditions: for Solubility in water: deionised water, 25 °C; for Solubility in phosphate buffer pH = 5.4: pH 5.4, 25 °C; for Solubility in phosphate buffer pH = 7.4: pH 7.4, 25 °C
L929 cell lines = conditions: high concentrations; cited from earlier work

Compound	T onset, the onset temperature of the thermal degradation [1] [°C]	log PpH=5.4 [2]	log PpH=7.4 [2]	logP ([2]; n-octanol/water)	Permeation as % applied dose of IBU [3] [%]	Skin accumulation as % applied dose of IBU [4] [%]	Skin accumulation [4]	Flux [5] [μg cm^−2 h^−1]	log P [6]	Increase in flux compared to IBU [5]	Solubility in hexane (in words) [7]	Solubility in water (Solubility) [g dm^−3]	Solubility in phosphate buffer pH = 5.4 (Solubility) [g dm^−3]	Solubility in phosphate buffer pH = 7.4 (Solubility) [g dm^−3]	Decrease of viability (L929 cell lines) [%]
CC(C)Cc1ccc(C(C)C(=O)O)cc1 (racemic) [rac-IBU, 2-(4-isobutylphenyl)-propionic acid, reference compound]	189.8	3.192	1.284	2.415 ± 0.001	6.06	3.1	745.69 ± 61.87 μg IBU g^−1	0.542							
CC(C)Cc1ccc(C(C)C(=O)[O-])cc1.CCCCn1cc[n+](C)c1 (stereo not shown) [[BMIm][IBU]]									1.15						
CC(C)Cc1ccc(C(C)C(=O)[O-])cc1.CCCCCCCCCC[N+](C)(C)CCCCCCCCCC [[N1,1,10,10][IBU]]									1.87	four–five-fold					
CC(C)Cc1ccc(C(C)C(=O)[O-])cc1.CCCCCC[N+](CCCCCC)(CCCCCC)CCCCCC [[N6,6,6,6][IBU]]									2.47	four–five-fold					
CC(C)Cc1ccc(C(C)C(=O)[O-])cc1.CCCC[P+](CCCC)(CCCC)CCCC [[P4,4,4,4][IBU]]									1.54						
CC(C)Cc1ccc(C(C)C(=O)O)cc1.CCCCCOC(=O)[C@@H](N)C(C)C [[ValOAm][IBU], L-valine pentyl ester ibuprofenate]	129.8	2.421 ± 0.002	1.259 ± 0.001		11.79		565.60 ± 71.09 ^a μg IBU g^−1				partly soluble (partly soluble when 33–100 mg of compound dissolved in 1 cm^3)	1.798 ± 0.019	1.380 ± 0.007	1.931 ± 0.008	
CC(C)Cc1ccc(C(C)C(=O)O)cc1.CCCCOC(=O)[C@@H](N)C(C)C [[ValOBu][IBU], L-valine butyl ester ibuprofenate]	119.9				10.66	7.0	815.14 ± 58.92 ^b μg IBU g^−1					3.125 ± 0.007	2.371 ± 0.016	3.089 ± 0.015	
CC(C)Cc1ccc(C(C)C(=O)O)cc1.CCOC(=O)[C@@H](N)C(C)C [[ValOEt][IBU], L-valine ethyl ester ibuprofenate]	89.5	2.023 ± 0.001	1.026 and 1.026 ± 0.001		7.33	3.5	412.19 ± 38.45 μg IBU g^−1					5.542 ± 0.007	3.969 ± 0.056	5.206 ± 0.044	
CC(C)Cc1ccc(C(C)C(=O)O)cc1.CCCCCCOC(=O)[C@@H](N)C(C)C [[ValOHex][IBU], L-valine hexyl ester ibuprofenate]	128.9	2.880 ± 0.011	1.279 and 1.279 ± 0.001		9.81		612.86 ± 129.33 ^a μg IBU g^−1				soluble (soluble when more than 100 mg of compound was soluble in 1 cm^3)	1.058 ± 0.002	0.759 ± 0.006	1.233 ± 0.001	
CC(C)Cc1ccc(C(C)C(=O)O)cc1.CCCOC(=O)[C@@H](N)C(C)C [[ValOPr][IBU], L-valine propyl ester ibuprofenate]	109.5	2.061 ± 0.001	1.197 ± 0.003		13.55	5.9	726.42 ± 113.37 ^a μg IBU g^−1					4.221 ± 0.033	3.057 ± 0.045	5.367 ± 0.019	
CCOC(=O)[C@@H]1CCCN1 [proline ethyl ester]															20
L-valine isopropyl ester ibuprofenate [[ValOiPr][IBU]]	90.2	2.186 ± 0.001	1.172 ± 0.001		12.09	4.9	630.75 ± 61.87 ^a μg IBU g^−1								
